As usually defined, the IC50 is the concentration at which inhibition is half-maximal.

This assay concerns the target Factor D (Homo sapiens (Human), UniProt P00746). Briefly: biochemical. It is filed as biochemical. As to conditions: read-out: IC50.

Where a name gives a salt, the structure may show the parent alone.

Sequence of Factor D (P00746 26-253): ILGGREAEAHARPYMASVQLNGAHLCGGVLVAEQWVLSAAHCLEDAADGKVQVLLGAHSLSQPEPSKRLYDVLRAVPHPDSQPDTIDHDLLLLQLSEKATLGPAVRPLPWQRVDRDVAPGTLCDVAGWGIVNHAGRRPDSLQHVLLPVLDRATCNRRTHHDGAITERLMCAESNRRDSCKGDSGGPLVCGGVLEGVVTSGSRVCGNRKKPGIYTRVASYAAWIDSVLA

For the compound `CO[C@H]1[C@@H](C(=O)NCc2cccc(Cl)c2F)N(C(=O)Cn2nc(C(C)=O)c3cnccc32)C[C@@H]1F` [Example 630, (2S,3S,4S)-1-[2-(3-Acetyl-pyrazolo[4,3-c]pyridin-1-yl)-acetyl]-4-fluoro-3-methoxy-pyrrolidine-2-carboxylic acid 3-chloro-2-fluoro-benzylamide], the IC50 stood at 36 nM. With `CO[C@H]1[C@@H](C(=O)NC2(c3cccc(Cl)c3F)CC2)N(C(=O)Cn2nc(C(C)=O)c3ccncc32)C[C@@H]1F` [Example 631, (2S,3S,4S)-1-[2-(3-Acetyl-pyrazolo[3,4-c]pyridin-1-yl)-acetyl]-4-fluoro-3-methoxy-pyrrolidine-2-carboxylic acid [1-(3-chloro-2-fluoro-phenyl)-cyclopropyl]-amide] the figure was 11 nM.

Regarding `COC(=O)c1ccc2c(C(C)=O)nn(CC(=O)N3[C@@H]4C[C@@H]4C[C@H]3C(=O)NCc3cccc(Cl)c3F)c2c1` [Example 632, 3-Acetyl-1-{2-[(1R,3S,5R)-3-(3-chloro-2-fluoro-benzylcarbamoyl)-2-aza-bicyclo [3.1.0]hex-2-yl]-2-oxo-ethyl}-1H-indazole-6-carboxylic acid methyl ester], the IC50 worked out at 18 nM.

Consider `CC(=O)c1nn(CC(=O)N2[C@@H]3C[C@@H]3C[C@H]2C(=O)NC2(c3cccc(Cl)c3F)COC2)c2ncccc12` [Example 633, (1R,3S,5R)-2-[2-(3-Acetyl-pyrazolo[3,4-b]pyridin-1-yl)-acetyl]-2-aza-bicyclo [3.1.0]hexane-3-carboxylic acid [3-(3-chloro-2-fluoro-phenyl)-oxetan-3-yl]-amide], for which the IC50 worked out at 55 nM.

Turning to `CC(=O)c1cn(CC(=O)N2C[C@H](F)[C@@H](OCCN(C)C)[C@H]2C(=O)NCc2cccc(Cl)c2F)c2ccccc12` [Example 634, (2S,3S,4S)-1-[2-(3-Acetyl-indol-1-yl)-acetyl]-3-(2-dimethylamino-ethoxy)-4-fluoro-pyrrolidine-2-carboxylic acid 3-chloro-2-fluoro-benzylamide formate], the IC50 amounted to 53 nM. In the case of `CC(=O)c1nn(CC(=O)N2C[C@H](F)[C@@H](O)[C@H]2C(=O)NC2(c3cccc(Cl)c3F)CC2)c2cnccc12` [Example 635, (2S,3S,4S)-1-[2-(3-Acetyl-pyrazolo[3,4-c]pyridin-1-yl)-acetyl]-4-fluoro-3-hydroxy-pyrrolidine-2-carboxylic acid [1-(3-chloro-2-fluoro-phenyl)-cyclopropyl]-amide formate], the IC50 came out at 18 nM.

As for `CO[C@H]1[C@@H](C(=O)Nc2cccc(OC(F)(F)F)c2F)N(C(=O)Cn2nc(C(N)=O)c3cc(C)ncc32)C[C@@H]1F` [Example 636, 1-{2-[(2S,3S,4S)-4-Fluoro-2-(2-fluoro-3-trifluoromethoxy-phenylcarbamoyl)-3-methoxy-pyrrolidin-1-yl]-2-oxo-ethyl}-5-methyl-1H-pyrazolo[3,4-c]pyridine-3-carboxylic acid amide triflate], the IC50 came to 13 nM. With `CCc1cc2c(C(N)=O)nn(CC(=O)N3C[C@H](F)[C@@H](OC)[C@H]3C(=O)Nc3cccc(OC(F)(F)F)c3F)c2cn1` [Example 637, 5-Ethyl-1-{2-[(2S,3S,4S)-4-fluoro-2-(2-fluoro-3-trifluoromethoxy-phenylcarbamoyl)-3-methoxy-pyrrolidin-1-yl]-2-oxo-ethyl}-1H-pyrazolo[3,4-c]pyridine-3-carboxylic acid amide triflate] the figure was 9 nM; with `CO[C@H]1[C@@H](C(=O)Nc2cccc(OC(F)(F)F)c2F)N(C(=O)Cn2nc(C(C)=O)c3cc(OCc4ncccn4)ccc32)C[C@@H]1F` [Example 638, (2S,3S,4S)-1-{2-[3-Acetyl-5-(pyrimidin-2-ylmethoxy)-indazol-1-yl]-acetyl}-4-fluoro-3-methoxy-pyrrolidine-2-carboxylic acid (2-fluoro-3-trifluoromethoxy-phenyl)-amide], 5 nM; with `CC(=O)c1nn(CC(=O)N2[C@@H]3C[C@@H]3C[C@H]2C(=O)NCc2cccc(Cl)c2F)c2cc(C(=O)O)ccc12` [Example 639, 3-Acetyl-1-{2-[(1R,3S,5R)-3-(3-chloro-2-fluoro-benzylcarbamoyl)-2-aza-bicyclo[3.1.0]hex-2-yl]-2-oxo-ethyl}-1H-indazole-6-carboxylic acid], 62 nM.

Take `CO[C@H]1[C@@H](C(=O)NCc2cccc(Cl)c2F)N(C(=O)Cn2nc(C(C)=O)c3ccc(C(=O)O)cc32)C[C@@H]1F` [Example 640, 3-Acetyl-1-{2-[(2S,3S,4S)-2-(3-chloro-2-fluoro-benzylcarbamoyl)-4-fluoro-3-methoxy-pyrrolidin-1-yl]-2-oxo-ethyl}-1H-indazole-6-carboxylic acid]: the IC50 is 8 nM. As for `CC(=O)c1cn(CC(=O)N2[C@@H]3C[C@@H]3C[C@H]2C(=O)N[C@H](C)c2cccc(Cl)c2F)c2cnccc12` [Example 641, (1R,3S,5R)-2-[2-(3-Acetyl-pyrrolo[2,3-c]pyridin-1-yl)-acetyl]-2-aza-bicyclo[3.1.0]hexane-3-carboxylic acid [(R)-1-(3-chloro-2-fluoro-phenyl)-ethyl]-amide], the IC50 amounted to 32 nM.

For `CC(=O)c1nn(CC(=O)N2[C@@H]3C[C@@H]3C[C@H]2C(=O)N[C@H](CCN(C)C)c2cccc(Cl)c2F)c2ccccc12` [Example 642, (1R,3S,5R)-2-[2-(3-Acetyl-indazol-1-yl)-acetyl]-2-aza-bicyclo[3.1.0]hexane-3-carboxylic acid [(R)-1-(3-chloro-2-fluoro-phenyl)-3-dimethylamino-propyl]-amide], the IC50 amounted to 15 nM.

Regarding `CO[C@H]1[C@@H](C(=O)N[C@H](C)c2cccc(Cl)c2F)N(C(=O)Cn2nc(C(N)=O)c3cccnc32)C[C@@H]1F` [Example 643, 1-(2-{(2S,3S,4S)-2-[(R)-1-(3-Chloro-2-fluoro-phenyl)-ethylcarbamoyl]-4-fluoro-3-methoxy-pyrrolidin-1-yl}-2-oxo-ethyl)-1H-pyrazolo[3,4-b]pyridine-3-carboxylic acid amide], the IC50 was found to be 25 nM. With `CC(=O)c1nc(CC(=O)N2[C@@H]3C[C@@H]3C[C@H]2C(=O)N[C@H](CO)c2cccc(Cl)c2F)n2ccccc12` [Example 644, (1R,3S,5R)-2-[2-(1-Acetyl-imidazo[1,5-a]pyridin-3-yl)-acetyl]-2-aza-bicyclo [3.1.0]hexane-3-carboxylic acid [(S)-1-(3-chloro-2-fluoro-phenyl)-2-hydroxy-ethyl]-amide] the figure was 79 nM; with `CCC(=O)c1cn(CC(=O)N2[C@@H]3C[C@@H]3C[C@H]2C(=O)NCc2cccc(Cl)c2F)c2cnccc12` [Example 645, (1R,3S,5R)-2-[2-(3-Propionyl-pyrrolo[2,3-c]pyridin-1-yl)-acetyl]-2-aza-bicyclo [3.1.0]hexane-3-carboxylic acid 3-chloro-2-fluoro-benzylamide], 132 nM; with `CC(=O)c1cn(CC(=O)N2[C@@H]3C[C@@H]3C[C@H]2C(=O)NCc2cccc(Cl)c2F)c2cnc(C)cc12` [Example 646, (1R,3S,5R)-2-[2-(3-Acetyl-5-methyl-pyrrolo[2,3-c]pyridin-1-yl)-acetyl]-2-aza-bicyclo [3.1.0]hexane-3-carboxylic acid 3-chloro-2-fluoro-benzylamide], 12 nM. On to `COc1cc2c(C(C)=O)nn(CC(=O)N3[C@@H]4C[C@@H]4C[C@H]3C(=O)NCc3cccc(Cl)c3F)c2cc1OC` [Example 647, (1R,3S,5R)-2-[2-(3-Acetyl-5,6-dimethoxy-indazol-1-yl)-acetyl]-2-aza-bicyclo [3.1.0]hexane-3-carboxylic acid 3-chloro-2-fluoro-benzylamide], for which the IC50 came to 16 nM. The figure for `CC(=O)c1cn(CC(=O)N2[C@@H]3C[C@@H]3C[C@H]2C(=O)NCc2cccc(Cl)c2F)c2ncncc12` [Example 649, (1R,3S,5R)-2-[2-(5-Acetyl-pyrrolo[2,3-d]pyrimidin-7-yl)-acetyl]-2-aza-bicyclo [3.1.0]hexane-3-carboxylic acid 3-chloro-2-fluoro-benzylamide] is 441 nM. The figure for `NC(=O)c1nn(CC(=O)N2[C@@H]3C[C@@H]3C[C@H]2C(=O)NCc2cccc(Cl)c2F)c2ccncc12` [Example 650, 1-{2-[(1R,3S,5R)-3-(3-Chloro-2-fluoro-benzylcarbamoyl)-2-aza-bicyclo[3.1.0]hex-2-yl]-2-oxo-ethyl}-1H-pyrazolo[4,3-c]pyridine-3-carboxylic acid amide] is 22 nM.

On to `Cc1cc2c(C(N)=O)nn(CC(=O)N3[C@@H]4C[C@@H]4C[C@H]3C(=O)NCc3cccc(Cl)c3F)c2cn1` [Example 651, 1-{2-[(1R,3S,5R)-3-(3-Chloro-2-fluoro-benzylcarbamoyl)-2-aza-bicyclo[3.1.0]hex-2-yl]-2-oxo-ethyl}-5-methyl-1H-pyrazolo[3,4-c]pyridine-3-carboxylic acid amide], for which the IC50 stood at 21 nM.

With `O=C(CO)c1nn(CC(=O)N2[C@@H]3C[C@@H]3C[C@H]2C(=O)NCc2cccc(Cl)c2F)c2ccccc12` [Example 652, (1R,3S,5R)-2-{2-[3-(2-Hydroxy-acetyl)-indazol-1-yl]-acetyl}-2-aza-bicyclo [3.1.0]hexane-3-carboxylic acid 3-chloro-2-fluoro-benzylamide], the IC50 was determined as 19 nM. The figure for `Cc1cc2c(cn1)c(C(N)=O)nn2CC(=O)N1[C@@H]2C[C@@H]2C[C@H]1C(=O)NCc1cccc(Cl)c1F` [Example 653, 1-{2-[(1R,3S,5R)-3-(3-Chloro-2-fluoro-benzylcarbamoyl)-2-aza-bicyclo[3.1.0]hex-2-yl]-2-oxo-ethyl}-6-methyl-1H-pyrazolo[4,3-c]pyridine-3-carboxylic acid amide] is 47 nM; for `NC(=O)c1nn(CC(=O)N2[C@@H]3C[C@@H]3C[C@H]2C(=O)NCc2cccc(Cl)c2F)c2ncccc12` [Example 654, 1-{2-[(1R,3S,5R)-3-(3-Chloro-2-fluoro-benzylcarbamoyl)-2-aza-bicyclo[3.1.0]hex-2-yl]-2-oxo-ethyl}-1H-pyrazolo[3,4-b]pyridine-3-carboxylic acid amide] it is 18 nM.

Turning to `CC(=O)c1cn(CC(=O)N2[C@@H]3C[C@@H]3C[C@H]2C(=O)NCc2cccc(Cl)c2F)c2nnccc12` [Example 655, (1R,3S,5R)-2-[2-(5-Acetyl-pyrrolo[2,3-c]pyridazin-7-yl)-acetyl]-2-aza-bicyclo [3.1.0]hexane-3-carboxylic acid 3-chloro-2-fluoro-benzylamide], the IC50 amounted to 91 nM.

Values taken from patent US9085555B2, “Complement pathway modulators and uses thereof” (priority 2011, dated 2015).
